Data published in patent US6995143B2, “Macrolides with antibacterial activity” (Basilea Pharmaceutica AG, priority 2002, dated 2006).
Converted amounts (≈) assume the structure as drawn.

Columns and labels:
Format in all cases: cell-based
[1] = tested on: Haemophilus influenzae QK50; assay: MIC, standard agar dilution method using HTM medium; conditions: for MIC: read-out: minimum inhibitory concentration (MIC), Strain L
Text: (§1) The biological activities of compounds of the present invention against Haemophilus influenzae have been determined by standard agar dilution method using HTM medium (National Committee for Clinical Laboratory Standards. 2000. Methods for Dilution Antimicrobial Susceptibility Tests for Bacteria that Grow Aerobically, 5th edition. Approved standard M7-A5. National Committee for Clinical Laboratory Standards, Wayne, Pa.).

[2] = tested on: Haemophilus influenzae QK12/87; assay: as above; conditions: for MIC: read-out: minimum inhibitory concentration (MIC), Strain I
Text: as §1

[3] = tested on: Haemophilus influenzae B1501; assay: as above; conditions: for MIC: read-out: minimum inhibitory concentration (MIC), Strain M
Text: as §1

[4] = tested on: Haemophilus influenzae 12214; assay: as above; conditions: for MIC: read-out: minimum inhibitory concentration (MIC), Strain K
Text: as §1

[5] = tested on: Escherichia coli ATCC 25922; assay: MIC, standard microdilution technique; conditions: for MIC: ATCC25922, read-out: minimum inhibitory concentration (MIC), Strain D
Text: (§2) The antibacterial activities of the compounds have been determined by standard microdilution technique (National Committee for Clinical Laboratory Standards. 2000. Methods for Dilution Antimicrobial Susceptibility Tests for Bacteria that Grow Aerobically, 5th edition. Approved standard M7-A5. National Committee for Clinical Laboratory Standards, Wayne, Pa.).

[6] = tested on: Streptococcus pneumoniae l/l; assay: MIC, standard microdilution technique; conditions: for MIC: read-out: minimum inhibitory concentration (MIC), Strain E
Text: as §2

[7] = tested on: Staphylococcus aureus ATCC 29213; assay: MIC, standard microdilution technique; conditions: for MIC: ATCC29213, read-out: minimum inhibitory concentration (MIC), Strain A
Text: as §2

[8] = tested on: Streptococcus pneumoniae SL199T; assay: MIC, standard microdilution technique; conditions: for MIC: read-out: minimum inhibitory concentration (MIC), Strain G
Text: as §2

[9] = tested on: Streptococcus pneumoniae 12288; assay: MIC, standard microdilution technique; conditions: for MIC: read-out: minimum inhibitory concentration (MIC), Strain H
Text: as §2

[10] = tested on: Staphylococcus aureus 745; assay: MIC, standard microdilution technique; conditions: for MIC: read-out: minimum inhibitory concentration (MIC), Strain C
Text: as §2

[11] = tested on: Streptococcus pneumoniae ¼; assay: MIC, standard microdilution technique; conditions: for MIC: read-out: minimum inhibitory concentration (MIC), Strain F
Text: as §2

[12] = tested on: Staphylococcus aureus 1086; assay: MIC, standard microdilution technique; conditions: for MIC: read-out: minimum inhibitory concentration (MIC), Strain B
Text: as §2

Compound	minimum inhibitory concentration (MIC), Strain L [1]	minimum inhibitory concentration (MIC), Strain I [2]	minimum inhibitory concentration (MIC), Strain M [3]	minimum inhibitory concentration (MIC), Strain K [4]	minimum inhibitory concentration (MIC), Strain D [5]	minimum inhibitory concentration (MIC), Strain E [6]	minimum inhibitory concentration (MIC), Strain A [7]	minimum inhibitory concentration (MIC), Strain G [8]	minimum inhibitory concentration (MIC), Strain H [9]	minimum inhibitory concentration (MIC), Strain C [10]	minimum inhibitory concentration (MIC), Strain F [11]	minimum inhibitory concentration (MIC), Strain B [12]	other results
CC[C@H]1OC(=O)[C@H](C)C(=O)[C@H](C)[C@@H](O[C@@H]2O[C@H](C)C[C@H](N(C)C)[C@H]2O)[C@](C)(OC)C[C@@H](C)C(=O)[C@H](C)[C@H]2[C@@H](SCCNS(=O)(=O)c3ccc(-c4ccccn4)s3)C(=O)O[C@@]21C (single isomer, unassigned) [Example 21]	16 µg/mL (≈ 17.6 µM)	32 µg/mL (≈ 35.2 µM)	16 µg/mL (≈ 17.6 µM)	16 µg/mL (≈ 17.6 µM)	>32 µg/mL	<=0.06 μg/ml	0.125 µg/mL (≈ 0.137 µM)	16 µg/mL (≈ 17.6 µM)	32 µg/mL (≈ 35.2 µM)	>32 µg/mL	8 µg/mL (≈ 8.79 µM)	0.125 µg/mL (≈ 0.137 µM)	–
CC[C@H]1OC(=O)[C@@](C)(F)C(=O)[C@H](C)[C@@H](O[C@@H]2O[C@H](C)C[C@H](N(C)C)[C@H]2O)[C@](C)(OC)C[C@@H](C)C(=O)[C@H](C)[C@H]2[C@@H](SCC(=O)Nc3cccc4cccnc34)C(=O)O[C@@]21C (single isomer, unassigned) [Example 25]	4 µg/mL (≈ 4.73 µM)	8 µg/mL (≈ 9.46 µM)	8 µg/mL (≈ 9.46 µM)	4 µg/mL (≈ 4.73 µM)	>32 µg/mL	<=0.06 μg/ml	0.25 µg/mL (≈ 0.295 µM)	2 µg/mL (≈ 2.36 µM)	4 µg/mL (≈ 4.73 µM)	32 µg/mL (≈ 37.8 µM)	0.125 µg/mL (≈ 0.148 µM)	0.125 µg/mL (≈ 0.148 µM)	–
CC[C@H]1OC(=O)[C@H](C)[C@@H](O[C@H]2C[C@@](C)(OC)[C@@H](O)[C@H](C)O2)[C@H](C)[C@@H](O[C@@H]2O[C@H](C)C[C@H](N(C)C)[C@H]2O)[C@](C)(OC)C[C@@H](C)C(=O)[C@H](C)[C@@H](O)[C@]1(C)O [Clarithromycin, reference compound]	–	–	–	–	–	–	–	–	–	–	–	–	MIC [1]: 8 µg/mL (≈ 10.7 µM); MIC [2]: 4 µg/mL (≈ 5.35 µM); MIC [3]: 4 µg/mL (≈ 5.35 µM); MIC [4]: 4 µg/mL (≈ 5.35 µM); MIC [5]: > 32 µg/mL; MIC [6]: ≤ 0.06 µg/mL; MIC [7]: 0.125 µg/mL (≈ 0.167 µM); MIC [8]: > 32 µg/mL; MIC [9]: > 32 µg/mL; MIC [10]: > 32 µg/mL; MIC [11]: 32 µg/mL (≈ 42.8 µM); MIC [12]: > 32 µg/mL
CC[C@H]1OC(=O)[C@H](C)[C@@H](O[C@H]2C[C@@](C)(OC)[C@@H](O)[C@H](C)O2)[C@H](C)[C@@H](O[C@@H]2O[C@H](C)C[C@H](N(C)C)[C@H]2O)[C@](C)(O)C[C@@H](C)C(=O)[C@H](C)[C@@H](O)[C@]1(C)O [Erythromycin, reference compound]	–	–	–	–	–	–	–	–	–	–	–	–	MIC [1]: 8 µg/mL (≈ 10.9 µM); MIC [2]: 4 µg/mL (≈ 5.45 µM); MIC [3]: 4 µg/mL (≈ 5.45 µM); MIC [4]: 4 µg/mL (≈ 5.45 µM); MIC [5]: > 32 µg/mL; MIC [6]: ≤ 0.06 µg/mL; MIC [7]: 0.25 µg/mL (≈ 0.341 µM); MIC [8]: > 32 µg/mL; MIC [9]: > 32 µg/mL; MIC [10]: > 32 µg/mL; MIC [11]: > 32 µg/mL; MIC [12]: > 32 µg/mL
CC[C@H]1OC(=O)[C@H](C)C(=O)[C@H](C)[C@@H](O[C@@H]2O[C@H](C)C[C@H](N(C)C)[C@H]2O)[C@](C)(OC)C[C@@H](C)C(=O)[C@H](C)[C@H]2[C@@H](SCC#Cc3ccc(C#N)cc3)C(=O)O[C@@]21C (single isomer, unassigned) [Example 23]	>32 µg/mL	>32 µg/mL	>32 µg/mL	>32 µg/mL	>32 µg/mL	1 µg/mL (≈ 1.28 µM)	16 µg/mL (≈ 20.4 µM)	>32 µg/mL	>32 µg/mL	>32 µg/mL	>32 µg/mL	16 µg/mL (≈ 20.4 µM)	–

More lines, main results first:

minimum inhibitory concentration (MIC), Strain L [1]	minimum inhibitory concentration (MIC), Strain I [2]	minimum inhibitory concentration (MIC), Strain M [3]	minimum inhibitory concentration (MIC), Strain K [4]	minimum inhibitory concentration (MIC), Strain D [5]	minimum inhibitory concentration (MIC), Strain E [6]	minimum inhibitory concentration (MIC), Strain A [7]	minimum inhibitory concentration (MIC), Strain G [8]	minimum inhibitory concentration (MIC), Strain H [9]	minimum inhibitory concentration (MIC), Strain C [10]	minimum inhibitory concentration (MIC), Strain F [11]	minimum inhibitory concentration (MIC), Strain B [12]	Compound	other results
32 µg/mL (≈ 38.5 µM)	>32 µg/mL	32 µg/mL (≈ 38.5 µM)	32 µg/mL (≈ 38.5 µM)	>32 µg/mL	<=0.06 μg/ml	1 µg/mL (≈ 1.2 µM)	32 µg/mL (≈ 38.5 µM)	>32 µg/mL	>32 µg/mL	>32 µg/mL	1 µg/mL (≈ 1.2 µM)	CC[C@H]1OC(=O)[C@H](C)C(=O)[C@H](C)[C@@H](O[C@@H]2O[C@H](C)C[C@H](N(C)C)[C@H]2O)[C@](C)(OC)C[C@@H](C)C(=O)[C@H](C)[C@H]2[C@@H](SCC(=O)c3ccc4c(c3)CCC(=O)N4)C(=O)O[C@@]21C [Example 6]	–
32 µg/mL (≈ 39.1 µM)	16 µg/mL (≈ 19.6 µM)	8 µg/mL (≈ 9.78 µM)	16 µg/mL (≈ 19.6 µM)	>32 µg/mL	<=0.06 μg/ml	1 µg/mL (≈ 1.22 µM)	>32 µg/mL	>32 µg/mL	>32 µg/mL	32 µg/mL (≈ 39.1 µM)	0.5 µg/mL (≈ 0.611 µM)	CC[C@H]1OC(=O)[C@H](C)C(=O)[C@H](C)[C@@H](O[C@@H]2O[C@H](C)C[C@H](N(C)C)[C@H]2O)[C@](C)(OC)C[C@@H](C)C(=O)[C@H](C)[C@H]2[C@@H](SCC(=O)c3csc4ccccc34)C(=O)O[C@@]21C [Example 54]	–
32 µg/mL (≈ 41.9 µM)	32 µg/mL (≈ 41.9 µM)	32 µg/mL (≈ 41.9 µM)	32 µg/mL (≈ 41.9 µM)	>32 µg/mL	<=0.06 μg/ml	1 µg/mL (≈ 1.31 µM)	32 µg/mL (≈ 41.9 µM)	>32 µg/mL	>32 µg/mL	32 µg/mL (≈ 41.9 µM)	0.5 µg/mL (≈ 0.655 µM)	CC[C@H]1OC(=O)[C@H](C)C(=O)[C@H](C)[C@@H](O[C@@H]2O[C@H](C)C[C@H](N(C)C)[C@H]2O)[C@](C)(OC)C[C@@H](C)C(=O)[C@H](C)[C@H]2[C@@H](SCC(=O)c3ccccn3)C(=O)O[C@@]21C [Example 7]	–
